PubChem BioAssay AID256 (DTP/NCI, 2004)
“And” between values parts separate entries of the source, which are not always exact repeats. Equal values may be shown once. Inconclusive results and toxic doses are left out. How the source made its calls: active means survival T/C of 150% or more; inactive means T/C below 125% in these data.

Tested on: CD2F1 mice, L1210 leukemia ip, survival T/C
Assay: NCI In Vivo Anticancer Drug Screen. Data for tumor model L1210 Leukemia (intraperitoneal) in CD2F1 (CDF1) mice
Conditions: endpoint: mean survival time, higher = longer survival
Summary of the method: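 Activity against a transplanted murine tumor was judged by comparing the compound group with a vehicle group. The outcome in the treated animals was divided by that in the controls.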

[1] = dose: 100.0 mg/kg/injection, schedule: Q01DX009 (ip), vehicle: saline with Tween-80
[2] = dose: 100.0 mg/kg/injection, schedule: Q04DX003 (ip), vehicle: saline with Tween-80
[3] = dose: 200.0 mg/kg/injection, schedule: Q01DX009 (ip), vehicle: saline with Tween-80
[4] = dose: 200.0 mg/kg/injection, schedule: Q04DX003 (ip), vehicle: saline with Tween-80
[5] = dose: 50.0 mg/kg/injection, schedule: Q04DX002 (ip), vehicle: saline with Tween-80
[6] = dose: 100.0 mg/kg/injection, schedule: Q04DX002 (ip), vehicle: saline with Tween-80
[7] = dose: 400.0 mg/kg/injection, schedule: Q04DX003 (ip), vehicle: saline with Tween-80
[8] = dose: 100.0 mg/kg/injection, schedule: Q01DX001 (ip), vehicle: saline
[9] = dose: 200.0 mg/kg/injection, schedule: Q01DX001 (ip), vehicle: saline
[10] = dose: 400.0 mg/kg/injection, schedule: Q01DX001 (ip), vehicle: saline

Measured: T/C

Cc1nc(C(=O)O)c(C(=O)O)[nH]1
inactive: [1] 98 % of control | [2] 100 % of control | [3] 97 % of control | [4] 94 % of control

C=CCNC(=S)n1cnc(N)n1
inactive: dose: 25.0 mg/kg/injection, schedule: Q04DX002 (ip), vehicle: saline with Tween-80 104 % of control | [5] 96 % of control | [6] 104 % of control and 105 % of control

NNC(=O)C(N)Cc1cnc[nH]1 (stereo unspecified)
inactive: [5] 100 % of control | [6] 100 % of control | dose: 200.0 mg/kg/injection, schedule: Q04DX002 (ip), vehicle: saline with Tween-80 122 % of control | dose: 400.0 mg/kg/injection, schedule: Q04DX002 (ip), vehicle: saline with Tween-80 118 % of control

CC(CC(=O)O)[Se][Se]C(C)CC(=O)O (stereo unspecified)
inactive: dose: 100.0 mg/kg/injection, schedule: Q01DX001 (ip), vehicle: saline with Tween-80 95 % of control | dose: 200.0 mg/kg/injection, schedule: Q01DX001 (ip), vehicle: saline with Tween-80 103 % of control

CC(=O)NC(=O)NC(Cc1ccccc1)c1ccccc1 (stereo unspecified)
inactive: [1] 98 % of control | [2] 104 % of control | [3] 92 % of control | [4] 96 % of control | dose: 400.0 mg/kg/injection, schedule: Q01DX009 (ip), vehicle: saline with Tween-80 95 % of control | [7] 108 % of control

CC(C)C1(C(=O)NNC(=O)CCCc2ccc(N(CCCl)CCCl)cc2)OC2(O)CCCCCN2C1=O (stereo unspecified)
inactive: dose: 6.25 mg/kg/injection, schedule: Q04DX003 (ip), vehicle: DMSO 101 % of control | dose: 12.5 mg/kg/injection, schedule: Q04DX003 (ip), vehicle: DMSO 95 % of control | dose: 25.0 mg/kg/injection, schedule: Q04DX003 (ip), vehicle: DMSO 114 % of control

Cc1cc(C(C)(C)C)c(Oc2ccc([N+](=O)[O-])cc2S(=O)(=O)O)c(C(C)(C)C)c1
inactive: [2] 102 % of control | [4] 101 % of control | [7] 92 % of control

CCCCCCC(O)C[N+](=O)[O-] (stereo unspecified)
inactive: dose: 50.0 mg/kg/injection, schedule: Q01DX009 (ip), vehicle: saline with Tween-80 96 % of control | [3] 100 % of control

CCCCCCCCN(C)N=Nc1ccc(C(N)=O)cc1
inactive: dose: 79.0 mg/kg/injection, schedule: Q01DX009 (ip), vehicle: Klucel (hydroxypropylcellulose) (HPC) 104 % of control | dose: 118.0 mg/kg/injection, schedule: Q01DX009 (ip), vehicle: Klucel (hydroxypropylcellulose) (HPC) 114 % of control | dose: 175.0 mg/kg/injection, schedule: Q01DX009 (ip), vehicle: Klucel (hydroxypropylcellulose) (HPC) 117 % of control | dose: 177.0 mg/kg/injection, schedule: Q01DX009 (ip), vehicle: Klucel (hydroxypropylcellulose) (HPC) 110 % of control | dose: 266.0 mg/kg/injection, schedule: Q01DX009 (ip), vehicle: Klucel (hydroxypropylcellulose) (HPC) 122 % of control | dose: 400.0 mg/kg/injection, schedule: Q01DX009 (ip), vehicle: Klucel (hydroxypropylcellulose) (HPC) 113 % of control and 118 % of control

CCOC(=O)/C=C\C1=CCCC1
inactive: dose: 50.0 mg/kg/injection, schedule: Q01DX009 (ip), vehicle: saline 102 % of control | dose: 100.0 mg/kg/injection, schedule: Q01DX009 (ip), vehicle: saline 98 % of control | dose: 200.0 mg/kg/injection, schedule: Q01DX009 (ip), vehicle: saline 102 % of control

CC(C)C(C)c1ccccc1 (stereo unspecified)
inactive: [8] 100 % of control | [9] 100 % of control | [10] 98 % of control

CCCC(C)N (stereo unspecified)
inactive: [8] 98 % of control | [9] 98 % of control | [10] 94 % of control

CC(C)=NNS(=O)(=O)c1ccccc1
inactive: dose: 12.5 mg/kg/injection, schedule: Q01DX005 (ip), vehicle: Klucel (hydroxypropylcellulose) (HPC) 88 % of control | dose: 25.0 mg/kg/injection, schedule: Q01DX005 (ip), vehicle: Klucel (hydroxypropylcellulose) (HPC) 96 % of control | dose: 50.0 mg/kg/injection, schedule: Q01DX005 (ip), vehicle: Klucel (hydroxypropylcellulose) (HPC) 96 % of control | dose: 100.0 mg/kg/injection, schedule: Q01DX005 (ip), vehicle: Klucel (hydroxypropylcellulose) (HPC) 93 % of control

[Cl][Pt+2][Cl].[NH-]Cc1cccc(F)c1.[NH-]Cc1cccc(F)c1
inactive: dose: 12.5 mg/kg/injection, schedule: Q04DX003 (ip), vehicle: distilled water + Tween-80 95 % of control | dose: 25.0 mg/kg/injection, schedule: Q04DX003 (ip), vehicle: distilled water + Tween-80 95 % of control | dose: 50.0 mg/kg/injection, schedule: Q04DX003 (ip), vehicle: distilled water + Tween-80 95 % of control | dose: 100.0 mg/kg/injection, schedule: Q04DX003 (ip), vehicle: distilled water + Tween-80 100 % of control | dose: 200.0 mg/kg/injection, schedule: Q04DX003 (ip), vehicle: distilled water + Tween-80 100 % of control

CCOC(=O)C(Cc1ccc(OC)cc1)P(=O)(OCC)OCC (stereo unspecified)
inactive: [8] 106 % of control | [9] 108 % of control | [10] 101 % of control

CN(Cc1ccc(C(=O)NC(CCC(=O)O)C(=O)O)cc1)Cc1cnc2nc(N)nc(N)c2n1 (stereo unspecified)
inactive: dose: 1.0 mg/kg/injection, schedule: Q01DX009 (ip), vehicle: water 96 % of control | dose: 10.0 mg/kg/injection, schedule: Q01DX009 (ip), vehicle: water 114 % of control

O=C(O)C[Se]CC(=O)O
inactive: [8] 109 % of control | [9] 103 % of control

OC1CCCC2CCC[N-]C12.OC1CCCC2CCC[N-]C12.[Mn+2] (stereo unspecified)
inactive: dose: 25.0 mg/kg/injection, schedule: Q01DX009 (ip), vehicle: Klucel (hydroxypropylcellulose) (HPC) 104 % of control | dose: 50.0 mg/kg/injection, schedule: Q01DX009 (ip), vehicle: Klucel (hydroxypropylcellulose) (HPC) 115 % of control | dose: 100.0 mg/kg/injection, schedule: Q01DX009 (ip), vehicle: Klucel (hydroxypropylcellulose) (HPC) 104 % of control
